{
  "source": "patent US9149493B2",
  "about": "“Compositions for bowel cleansing and use thereof” (ALFA WASSERMANN SPA, priority 2011, dated 2015)",
  "origin": "cited, not measured here",
  "conditions": "administered alone; eliminated unchanged in urine",
  "data": [
    {"substance": "citric acid and sodium citrate [citrates]", "values": [
      {"measurement": "absorption of citrates in the small intestine", "result": "almost entirely absorbed"}
    ]}
  ]
}
